Reference: article PMC6651024, “LIR Motif-Containing Hyperdisulfide β-Ginkgotide is Cytoprotective, Adaptogenic, and Scaffold-Ready” (Molecules, 2019)
Entries after “also recorded” stand apart in the source; their conditions may differ. Where a SMILES comes first, the peptide text is derived from it.

Columns and labels:
SH-SY5Y cells [1] = experiment: LDH release cytotoxicity assay, SH-SY5Y; type: cell-based, mouse; conditions: 10 µM peptide, 48 h, 37 °C, LDH kit, 450 nm, triplicates
Text: (§1) In addition, β-gB1 is non-toxic to Vero and BHK (baby hamster kidney) cell lines based on an MTT assay. […] LDH is a cytoplasmic enzyme which is rapidly released into the cell culture medium upon plasma membrane damage and is widely used as a marker for cytotoxicity. Thus, an LDH-release assay measures the level of plasma membrane damage to a cell population.
(§2) Rat cardio-myoblast cells (H9c2) and […] neuron-like SH-SY5Y cells were purchased from ATCC and maintained in DMEM (Dulbecco’s modified eagle medium) medium supplemented with 10% fetal bovine serum (FBS), 10,000 U/mL of penicillin, and 10,000 µg/mL of streptomycin at 37 °C, 5% CO2.
An LDH release assay was performed using the CytoSelect™ LDH cytotoxicity assay kit (CBA-241, Cell Biolabs, Inc., San Diego, CA, USA). In brief, cells were cultured in DMEM with or without 10 µM of β-gB1 and S-alkylated β-gB1 (β-gB1Alk) for 48 h at 37 °C and 5% CO2. PBS was used for the vehicle control experiment. The culture medium was transferred and mixed with the LDH assay reagent in a ratio of 9:1. The reaction mixture was incubated at 37 °C for 2 h, and colorimetric quantification was performed using a 450 nm wavelength. The assay was performed in experimental triplicates, and statistical calculations and bar graphs were done using GraphPad Prism software (Version 6.01). […]

Beclin-1 (BECN1) = experiment: Western blot of autophagy marker Beclin-1 in SH-SY5Y cells; type: cell-based, human; conditions: western blot densitometry relative to GAPDH, normalized to vehicle control, mean, triplicates
Method: The LIR-containing proteins regulate autophagosome formation by interacting with the protein Atg8 (autophagy-related gene, Atg) family through their LIR sequences. […] The SH-SY5Y cells were cultured with or without β-gB1. The autophagy markers, Beclin-1 (BECN1), LC3B-I, and LC3B-II, were identified and quantified by western blot analysis. Beclin-1 plays an important role in regulating both autophagy and cell death, whereas LC3B is an important component of the autophagy pathway and the most widely used marker for autophagosomes. Two of the processed LC3B protein are LC3B-I and LC3B-II. LC3B-I is a truncated LC3B. In contrast, LC3B-II is a truncated and lipidated version of LC3B-I [28, 29]. Importantly, LC3B-II is centrally involved in the events of autophagosome membrane expansion and fusion. […]
A 25 µg equivalent quantity of each protein samples were resolved on a 10% and 15% SDS-PAGE gel accordingly and transferred onto a nitrocellulose membrane. […] Protein bands were quantitated densitometrically using ImageJ software (ImageJ15.0b, Wayen Rasband, NIH, Bethesda, Maryland, USA), expressed relative to GAPDH, and normalized to the vehicle control cells. […]

SH-SY5Y cells [2] = experiment: MTT-based cell proliferation assay under normoxia, SH-SY5Y; set-up: species or system human; conditions: 10 µM peptide, 48 h, triplicates
Text: as §1, §2
Cells were cultured in DMEM with or without β-gB1/S-alkylated β-gB1 (β-gB1Alk) for 48 h under normoxia, hypoxia, and hypoxia-reoxygenation conditions. Phosphate-buffered saline (PBS) was used as a vehicle control. After 48 h, MTT (3-(4,5-dimethylthiazol-2-yl)-2,5-diphenyltetrazolium bromide) reagent was added with a final concentration of 0.5 mg/mL, and it was incubated at 37 °C for 2 h. The culture medium was then aspirated, and purple formazan crystals were dissolved in DMSO for colorimetric quantification at 570 nm using a microplate reader with a reference wavelength of 630 nm. […]

## CC[C@H](C)[C@@H]1NC(=O)[C@@H]2CSSC[C@H](NC(=O)CNC(=O)[C@@H](NC(=O)[C@H](CCC(=O)O)NC(=O)[C@@H](N)Cc3ccc(O)cc3)[C@@H](C)O)C(=O)N[C@@H](CCCCN)C(=O)N[C@@H](CCCNC(=N)N)C(=O)N[C@H]3CSSC[C@@H](C(=O)O)NC(=O)[C@H](CSSC[C@H](NC3=O)C(=O)N[C@@H](Cc3ccc(O)cc3)C(=O)N[C@@H](CC(C)C)C(=O)N[C@@H](CC(=O)O)C(=O)N[C@@H](CCC(=O)O)C(=O)N[C@@H](Cc3ccc(O)cc3)C(=O)NCC(=O)N2)NC(=O)[C@H](CCCNC(=N)N)NC1=O [β-gB1] (HELM PEPTIDE1{Y.E.T.G.C.K.R.C.C.Y.L.D.E.Y.G.C.I.R.C.C}$PEPTIDE1,PEPTIDE1,5:R3-16:R3|PEPTIDE1,PEPTIDE1,8:R3-20:R3|PEPTIDE1,PEPTIDE1,9:R3-19:R3$$$V2.0; N-terminus and C-terminus assumed)
SH-SY5Y cells [1]
  Cytotoxicity / cell-membrane damage by LDH release: no significant cytotoxicity or cell-membrane damaging effects
Beclin-1 (BECN1)
  Increase of BECN1 expression vs control: 1.5 fold
SH-SY5Y cells [2]
  Cell viability (growth or death) under normoxia: No change in cell viability; also recorded: no significant effect on the growth or death
